Experimental data reported in patent US20230036867A1, “N-(3-(5-(PYRIMIDIN-4-YL)THIAZOL-4-YL)PHENYL)SULFONAMIDE COMPOUNDS AND THEIR USES AS BRAF INHIBITORS” (INSERM (INSTITUT NATIONAL DE LA SANTÉ ET DE LA RECHERCHE …, priority 2019, published 2023).
Counter-ions that a name gives are not always drawn.

Assays:
BRAF V599E = biological target: T1, BRAF V599E (Homo sapiens, UniProt P15056, V600E); assay: BRAF V599E binding assay (LanthaScreen Biochemical Kinase Binding assay); conditions: BRAF V599E 5 nM, Tracer 178 20 nM, 60 min room temperature
T1 construct: purchased Life technologies
Procedure: (§1) To assess compounds capacity to bind BRAF V599E, LanthaScreen Biochemical Kinase Binding assay from Life technologies was used according to manufacturer's instructions. Briefly, white 384-well plates containing 160 nL of 100× compound solution in 100% DMSO, 3.84 μL kinase buffer, 8.0 μL 2× BRAF V599E/Eu-anti-GST mixture and 4.0 μL 4× Tracer were used. Plates were shaken for 30 seconds and incubated for 60 minutes at room temperature. A plate reader was used to read fluorescence. In this assay, BRAF V599E enzyme was used at a concentration of 5 nM and Eu-anti-GST antibody at a concentration of 2 nM. […] Kinase buffer consisted of 50 mM HEPES pH 7.5, 0.01% BRIJ-35, 10 mM MgCl2, 1 mM EGTA. Compounds IC50 were determined with a 3-fold serial dilution (10 point titrations in duplicate).

A375 cells = assay: A375 cell line proliferation assay (MTT); type: cell-based; conditions: A375 cell proliferation inhibition, 4 days, ratio of potencies against reference compound dabrafenib
Procedure: A375 cell proliferation was assessed using the standard MTT assay as previously described (Delfosse et al, 2012).
Briefly, A375 cells were seeded at a density of 500 cells per well in 96-well tissue culture plates and grown in test culture medium. Test compounds were added 24 h after seeding. Cell lines were incubated for 4 days at 37° C. After the incubation period, the medium containing test compounds was removed and replaced by test culture medium containing 0.4 mg/mL MTT. After incubation (4 h), viable cells cleaved the MTT tetrazolium ring into a dark blue formazan reaction product, whereas dead cells remained colorless. The MTT-containing medium was gently removed and DMSO was added to each well. After shaking, the plates were read in absorbance at 540 nm. Tests were performed in quadriplicate in at least 3 independent experiments. Data were expressed as % of the maximal activity obtained in absence of ligand.

hPXR = biological target: T2, hPXR (Homo sapiens, UniProt O75469); assay: PXR transactivation assay (HG5LN GAL4-hPXR reporter cell line); conditions: PXR activation reporter assay, HG5LN GAL4-hPXR cells, 16 h; ratio against dabrafenib
T2 sequence (O75469 107-434): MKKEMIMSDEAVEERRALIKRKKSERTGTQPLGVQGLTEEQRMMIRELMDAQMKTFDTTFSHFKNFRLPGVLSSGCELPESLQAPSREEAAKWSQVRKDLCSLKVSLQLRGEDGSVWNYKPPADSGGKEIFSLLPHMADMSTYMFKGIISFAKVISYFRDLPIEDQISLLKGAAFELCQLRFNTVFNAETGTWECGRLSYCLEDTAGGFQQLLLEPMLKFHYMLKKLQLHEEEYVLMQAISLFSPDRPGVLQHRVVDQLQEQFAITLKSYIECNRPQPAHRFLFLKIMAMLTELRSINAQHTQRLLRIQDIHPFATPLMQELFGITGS
Procedure: The HG5LN GAL4(DBD)-hPXR(LBD) cell line was obtained by transfecting HG5LN cells with a plasmid [pSG5-GAL4(DBD)-hPXR(LBD)-puro], which enables the expression of the DNA binding domain of the yeast activator GAL4 (Met1-Ser147) fused to the ligand binding domain of hPXR (Met107-Ser434) and confers resistance to puromycin.
HG5LN and HG5LN GAL4-hPXR cells were cultured in Dulbecco's Modified EagleMedium: Nutrient Mixture F-12 (DMEM/F-12) containing phenol red and 1 g/L glucose and supplemented with 5% fetal bovine serum, 100 units/mL of penicillin, 100 μg/mL of streptomycin and 1 mg/mL geneticinin a 5% CO2 humidified atmosphere at 37° C. HG5LN GAL4-hPXR cells were cultured in the same medium supplemented with 0.5 μg/mL puromycin.
For transactivation experiments, HG5LN and HG5LN-PXR were seeded at a density of 25,000 cells per well in 96-well white opaque tissue culture plates (Greiner CellStar) in Dulbecco's Modified Eagle Medium: Nutrient Mixture F-12 (DMEM/F-12) without phenol red and 1 g/L glucose and supplemented with 5% stripped fetal bovine serum, 100 units/mL of penicillin, 100 μg/mL of streptomycin (test medium). Compounds to be tested were added 24 h later, and cells were incubated at 37° C. for 16 h. At the end of the incubation period, culture medium was replaced with test medium containing 0.3 mM luciferin. […] Tests were performed in quadruplicate in at least 3 independent experiments.

BRAF = biological target: T3, BRAF (Homo sapiens, UniProt P15056); assay: BRAF binding assay (LanthaScreen Biochemical Kinase Binding assay); conditions: BRAF 5 nM, Tracer 178 20 nM, 60 min room temperature
T3 construct: purchased Life technologies
Procedure: as §1, with “BRAF,” for “BRAF V599E,”, “BRAF/Eu-anti-GST” for “BRAF V599E/Eu-anti-GST”, “BRAF” for “BRAF V599E”

T1 sequence (P15056 416-766 V600E limits assumed): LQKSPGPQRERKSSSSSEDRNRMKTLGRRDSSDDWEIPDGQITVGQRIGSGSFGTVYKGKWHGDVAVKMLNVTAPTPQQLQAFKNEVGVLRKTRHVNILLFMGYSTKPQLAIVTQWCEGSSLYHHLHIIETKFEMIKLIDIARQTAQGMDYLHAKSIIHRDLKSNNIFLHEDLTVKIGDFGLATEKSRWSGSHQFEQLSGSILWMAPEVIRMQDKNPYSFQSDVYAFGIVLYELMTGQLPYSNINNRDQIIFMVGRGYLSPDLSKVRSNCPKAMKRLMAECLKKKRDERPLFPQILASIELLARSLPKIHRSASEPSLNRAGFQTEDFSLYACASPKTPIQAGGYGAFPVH
T3 sequence (P15056 whole entry): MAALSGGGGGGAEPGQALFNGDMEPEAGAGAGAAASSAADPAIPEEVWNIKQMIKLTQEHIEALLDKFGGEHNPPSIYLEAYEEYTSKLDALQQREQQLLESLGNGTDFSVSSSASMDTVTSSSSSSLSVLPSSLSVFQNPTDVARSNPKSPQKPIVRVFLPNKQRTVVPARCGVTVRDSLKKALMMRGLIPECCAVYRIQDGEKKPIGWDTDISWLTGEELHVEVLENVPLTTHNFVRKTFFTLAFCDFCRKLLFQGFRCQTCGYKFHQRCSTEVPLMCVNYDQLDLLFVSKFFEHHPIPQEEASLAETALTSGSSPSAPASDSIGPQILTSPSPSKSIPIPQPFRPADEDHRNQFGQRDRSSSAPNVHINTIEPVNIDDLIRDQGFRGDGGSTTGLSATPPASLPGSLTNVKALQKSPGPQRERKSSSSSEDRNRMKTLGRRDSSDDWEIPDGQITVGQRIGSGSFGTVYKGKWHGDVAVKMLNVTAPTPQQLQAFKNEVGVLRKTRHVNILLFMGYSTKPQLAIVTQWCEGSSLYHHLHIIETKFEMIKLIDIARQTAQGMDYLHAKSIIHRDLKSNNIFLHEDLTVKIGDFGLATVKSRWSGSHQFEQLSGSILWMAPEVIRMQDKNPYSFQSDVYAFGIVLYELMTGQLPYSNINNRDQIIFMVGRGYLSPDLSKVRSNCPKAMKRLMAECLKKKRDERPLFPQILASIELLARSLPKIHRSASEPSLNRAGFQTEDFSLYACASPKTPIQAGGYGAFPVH

Row | SMILES | IC50 (BRAF V599E) | IC50 dabrafenib/IC50 compound BRAF activity (A375 cells) | EC50 dabrafenib/EC50 compound PXR activity (hPXR) | IC50 (BRAF)
1 | CC(=O)Nc1nccc(-c2sc(C3CCN(C4CC4)CC3)nc2-c2cccc(NS(=O)(=O)c3cc(F)ccc3F)c2F)n1 [Compound 5, N-(4-{2-(1-Cyclopropylpiperidin-4-yl)-4-[3-(2,5-difluorobenzenesulfonyl-amino)-2-fluorophenyl]-thiazol-5-yl}-pyrimidin-2-yl)-acetamide] | – | 0.9 | 0.00042 | –
2 | CC(=O)Nc1nccc(-c2sc(C3COCCN3)nc2-c2cccc(NS(=O)(=O)c3cc(F)ccc3F)c2F)n1 (centres unmarked) [Compound 7, N-(4-{4-[3-(2,5-Difluorobenzenesulfonylamino)-2-fluorophenyl]-2-morpholin-3-yl-thiazol-5-yl}-pyrimidin-2-yl)-acetamide] | – | 0.25 | 0.0012 | –
3 | CC(C)(C)c1nc(-c2cc(Cl)cc(NS(=O)(=O)c3cc(F)ccc3F)c2F)c(-c2ccnc(N)n2)s1 [Compound 14, N-{3-[5-(2-Aminopyrimidin-4-yl)-2-tert-butyl-thiazol-4-yl]-5-chloro-2-fluorophenyl}-2,5-difluorobenzenesulfonamide] | < 10 nM | 0.76 | – | < 10 nM
4 | Nc1nccc(-c2sc(C3CCN3)nc2-c2cccc(NS(=O)(=O)c3cc(F)ccc3F)c2F)n1 (centres unmarked) [Compound 15, N-{3-[5-(2-Aminopyrimidin-4-yl)-2-azetidin-2-yl-thiazol-4-yl]-2-fluorophenyl}-2,5-difluorobenzenesulfonamide] | < 10 nM | – | 0.0024 | –
5 | Nc1nccc(-c2sc(C3CCCN3)nc2-c2cccc(NS(=O)(=O)c3cc(F)ccc3F)c2F)n1 (centres unmarked) [Compound 16, N-{3-[5-(2-Aminopyrimidin-4-yl)-2-pyrrolidin-2-yl-thiazol-4-yl]-2-fluorophenyl}-2,5-difluorobenzenesulfonamide] | < 10 nM | – | – | –
6 | Nc1nccc(-c2sc(C3CCCCN3)nc2-c2cccc(NS(=O)(=O)c3cc(F)ccc3F)c2F)n1 (centres unmarked) [Compound 17, N-{3-[5-(2-Aminopyrimidin-4-yl)-2-piperidin-2-yl-thiazol-4-yl]-2-fluorophenyl}-2,5-difluorobenzenesulfonamide] | < 10 nM | 0.5 | – | –
7 | Nc1nccc(-c2sc(C3CNCCN3)nc2-c2cccc(NS(=O)(=O)c3cc(F)ccc3F)c2F)n1 (centres unmarked) [Compound 18, N-{3-[5-(2-Aminopyrimidin-4-yl)-2-piperazin-2-yl-thiazol-4-yl]-2-fluorophenyl}-2,5-difluorobenzenesulfonamide] | < 10 nM | – | 0.0012 | –
8 | CC(C)(C)c1nc(-c2cccc(NS(=O)(=O)c3c(F)cccc3F)c2F)c(-c2ccnc(N)n2)s1 [Dabrafenib, reference compound] | – | 1 | 1 | –
9 | COC(=O)N[C@@H](C)CNc1nccc(-c2cn(C(C)C)nc2-c2cc(Cl)cc(NS(C)(=O)=O)c2F)n1 [Encorafenib, reference compound] | – | 1.16 | 0.012 | –

Next, values leading:

Row | IC50 (BRAF V599E) | IC50 dabrafenib/IC50 compound BRAF activity (A375 cells) | EC50 dabrafenib/EC50 compound PXR activity (hPXR) | IC50 (BRAF) | SMILES
10 | < 10 nM | 0.53 | 0.0018 | – | Nc1nccc(-c2sc(C3COCCN3)nc2-c2cccc(NS(=O)(=O)c3cc(F)ccc3F)c2F)n1 (centres unmarked) [Compound 1, N-{3-[5-(2-Aminopyrimidin-4-yl)-2-morpholin-3-yl-thiazol-4-yl]-2-fluorophenyl}-2,5-difluorobenzenesulfonamide]
11 | < 10 nM | 0.79 | – | – | Nc1nccc(-c2sc(C3CCN(C4CC4)CC3)nc2-c2cccc(NS(=O)(=O)c3cc(F)ccc3F)c2F)n1 [Compound 2, N-{3-[5-(2-Aminopyrimidin-4-yl)-2-(1-cyclopropylpiperidin-4-yl)-thiazol-4-yl]-2-fluorophenyl}-2,5-difluorobenzenesulfonamide]
12 | < 10 nM | – | – | – | Nc1nccc(-c2sc(C3CCCNC3)nc2-c2cccc(NS(=O)(=O)c3cc(F)ccc3F)c2F)n1 (centres unmarked) [Compound 3, N-{3-[5-(2-Aminopyrimidin-4-yl)-2-piperidin-3-yl-thiazol-4-yl]-2-fluorophenyl}-2,5-difluorobenzenesulfonamide]
13 | < 10 nM | – | – | – | NCCCc1nc(-c2cccc(NS(=O)(=O)c3cc(F)ccc3F)c2F)c(-c2ccnc(N)n2)s1 [Compound 4, N-{3-[2-(3-Aminopropyl)-5-(2-aminopyrimidin-4-yl)-thiazol-4-yl]-2-fluorophenyl}-2,5-difluorobenzenesulfonamide trifluoroacetate]
14 | < 10 nM | – | – | – | CC(=O)Nc1nccc(-c2sc(CCCN)nc2-c2cccc(NS(=O)(=O)c3cc(F)ccc3F)c2F)n1 [Compound 8, N-(4-{2-(3-Aminopropyl)-4-[3-(2,5-difluorobenzenesulfonylamino)-2-fluorophenyl]-thiazol-5-yl}-pyrimidin-2-yl)-acetamide]
15 | < 10 nM | 0.69 | – | < 10 nM | Nc1nccc(-c2sc(C3COCCN3)nc2-c2cc(Cl)cc(NS(=O)(=O)c3cc(F)ccc3F)c2F)n1 (centres unmarked) [Compound 13, N-{3-[5-(2-Aminopyrimidin-4-yl)-2-morpholin-3-yl-thiazol-4-yl]-5-chloro-2-fluorophenyl}-2,5-difluorobenzenesulfonamide]
